This is an account of results in US3978035A, “13-Norleucine-14-desamido motilin, a method for preparing it and an agent containing it” (Max-Planck-Gesellschaft zur Forderung der Wissenschaften …, priority 1973, dated 1976).

Where a SMILES comes first, the peptide text is derived from it. [ ]: non-standard residue; d: D form. Nle = CCCC[C@H](N)C(=O)O

The nature of this test: biological activity in comparison with natural motilin. The conditions noted are these: after purification on ion exchangers; relative to naturally occurring motilin (method reference: J. C. Brown et al.).

Take `CCCC[C@H](NC(=O)[C@H](CCCNC(=N)N)NC(=O)[C@H](CCC(N)=O)NC(=O)[C@H](CC(C)C)NC(=O)[C@H](CCC(=O)O)NC(=O)CNC(=O)[C@H](Cc1ccc(O)cc1)NC(=O)[C@@H](NC(=O)[C@H](Cc1ccccc1)NC(=O)[C@@H](NC(=O)[C@@H]1CCCN1C(=O)[C@@H](NC(=O)[C@@H](N)Cc1ccccc1)C(C)C)[C@@H](C)CC)[C@@H](C)O)C(=O)N[C@@H](CCC(=O)O)C(=O)N[C@@H](CCC(=O)O)C(=O)N[C@@H](CCCCN)C(=O)N[C@@H](CCC(=O)O)C(=O)N[C@@H](CCCNC(=N)N)C(=O)N[C@@H](CC(N)=O)C(=O)N[C@@H](CCCCN)C(=O)NCC(=O)N[C@@H](CCC(N)=O)C(=O)O` [13-norleucine-14-desamido-motilin] (H-FVPIFTYGELQR[Nle]EEKERNKGQ-OH): the “biological activity in comparison with natural motilin” value was “above 90%”.

Regarding `CCCC[C@H](NC(=O)[C@H](CCCNC(=N)N)NC(=O)[C@H](CCC(N)=O)NC(=O)[C@H](CC(C)C)NC(=O)[C@H](CCC(=O)O)NC(=O)CNC(=O)[C@H](Cc1ccc(O)cc1)NC(=O)[C@@H](NC(=O)[C@H](Cc1ccccc1)NC(=O)[C@@H](NC(=O)[C@@H]1CCCN1C(=O)[C@@H](NC(=O)[C@@H](N)Cc1ccccc1)C(C)C)[C@@H](C)CC)[C@@H](C)O)C(=O)N[C@@H](CCC(=O)O)C(=O)N[C@@H](CCC(=O)O)C(=O)N[C@@H](CCCCN)C(=O)N[C@@H](CCC(=O)O)C(=O)N[C@@H](CCCNC(=N)N)C(=O)N[C@@H](CC(N)=O)C(=O)N[C@@H](CCCCN)C(=O)NCC(=O)N[C@@H](CCC(N)=O)C(=O)O` [C1 -fraction] (H-FVPIFTYGELQR[Nle]EEKERNKGQ-OH), the “biological activity in comparison with natural motilin” value is “over 90%”.
